Species on record: Rattus norvegicus
Assay: Open TG-GATES - Regimen: Single
Format: toxicity, organism-based, Sprague-Dawley
Set-up: regimen Single, gender Male, age 6 weeks
Details: in vivo, po, 20 mg/kg, route gavage, dose level Low; for APTT / Bas / Eos / Fbg / Hb / Ht / Lym / MCH / MCHC / MCV / Mono / Neu / PT / Plat / RBC / Ret / WBC: tissue Blood; for KIDNEY_L / KIDNEY_R / KIDNEY_TOTAL: tissue Kidney; for LIVER: tissue Liver; for A/G / ALP / ALT / AST / BUN / CRE / Ca / Cl / DBIL / GLC / IP / K / LDH / Na / PL / RALB / TBIL / TC / TG / TP / gamma-GTP: tissue Plasma

`Cn1c(=O)c2[nH]cnc2n(C)c1=O.O` [THEOPHYLLINE] showed a TERMINAL_BW (3 h) of 211.4 g, an APTT (3 h) of 22.4 s and a Bas (3 h) of 0%. For the same compound, the Eos (3 h) was 1%, the Fbg (3 h) was 298.2 mg/dL and the Hb (3 h) was 13.1 g/dL. It also gave a Ht (3 h) of 39.2%, a Lym (3 h) of 80.4% and an MCH (3 h) of 21.1 pg. The MCHC (3 h) was 33.5%, the MCV (3 h) was 62.9 fL and the Mono (3 h) was 2.4%. The Neu (3 h) was 15.2%, the PT (3 h) was 15.8 s and the Plat (3 h) was 125.8 x10_4/uL. It also gave an RBC (3 h) of 623 x10_4/ul, a Ret (3 h) of 7.2% and a WBC (3 h) of 83.9 x10_2/uL. The KIDNEY_L (3 h) was 0.9 g, the KIDNEY_R (3 h) was 0.9 g and the KIDNEY_TOTAL (3 h) was 1.8 g. The LIVER (3 h) was 9.4 g, the A/G (3 h) was 1.3 and the ALP (3 h) was 1988.6 IU/L. It also gave an ALT (3 h) of 46.8 IU/L, an AST (3 h) of 75 IU/L and a BUN (3 h) of 14.4 mg/dL. For the same compound, the CRE (3 h) was 0.2 mg/dL, the Ca (3 h) was 10.6 mg/dL and the Cl (3 h) was 108.8 meq/L. It also gave a DBIL (3 h) of 0 mg/dL, a GLC (3 h) of 181.8 mg/dL and an IP (3 h) of 7.2 mg/dL. The K (3 h) was 3.5 meq/L, the LDH (3 h) was 159.2 IU/L and the Na (3 h) was 141.8 meq/L. It also gave a PL (3 h) of 137.4 mg/dL, an RALB (3 h) of 3.2 g/dL and a TBIL (3 h) of 0.02 mg/dL. For the same compound, the TC (3 h) was 80.6 mg/dL, the TG (3 h) was 45.4 mg/dL and the TP (3 h) was 5.8 g/dL. For the same compound, the gamma-GTP (3 h) was 1.2 IU/L, the TERMINAL_BW (6 h) was 213.7 g and the APTT (6 h) was 23.5 s. The Bas (6 h) was 0%, the Eos (6 h) was 0.6% and the Fbg (6 h) was 315.4 mg/dL. For the same compound, the Hb (6 h) was 13.8 g/dL, the Ht (6 h) was 41.9% and the Lym (6 h) was 82.8%. It also gave an MCH (6 h) of 20.8 pg, an MCHC (6 h) of 33.1% and an MCV (6 h) of 63 fL. For the same compound, the Mono (6 h) was 2.4%, the Neu (6 h) was 12.8% and the PT (6 h) was 15.5 s. For the same compound, the Plat (6 h) was 129.9 x10_4/uL, the RBC (6 h) was 664.6 x10_4/ul and the Ret (6 h) was 7.4%. The WBC (6 h) was 99.4 x10_2/uL, the KIDNEY_L (6 h) was 0.9 g and the KIDNEY_R (6 h) was 0.9 g. For the same compound, the KIDNEY_TOTAL (6 h) was 1.9 g, the LIVER (6 h) was 9 g and the A/G (6 h) was 1.2. For the same compound, the ALP (6 h) was 1532.8 IU/L, the ALT (6 h) was 46 IU/L and the AST (6 h) was 85.2 IU/L. It also gave a BUN (6 h) of 9.8 mg/dL, a CRE (6 h) of 0.2 mg/dL and a Ca (6 h) of 10.5 mg/dL. It also gave a Cl (6 h) of 108.2 meq/L, a DBIL (6 h) of 0 mg/dL and a GLC (6 h) of 178.2 mg/dL. It also gave an IP (6 h) of 8.4 mg/dL, a K (6 h) of 3.8 meq/L and an LDH (6 h) of 174.8 IU/L. For the same compound, the Na (6 h) was 141 meq/L, the PL (6 h) was 126.6 mg/dL and the RALB (6 h) was 3.1 g/dL. The TBIL (6 h) was 0.02 mg/dL, the TC (6 h) was 73.2 mg/dL and the TG (6 h) was 51.8 mg/dL. It also gave a TP (6 h) of 5.6 g/dL, a gamma-GTP (6 h) of 1.2 IU/L and a TERMINAL_BW (9 h) of 210.6 g. The APTT (9 h) was 23.2 s, the Bas (9 h) was 0% and the Eos (9 h) was 1%. It also gave a Fbg (9 h) of 297 mg/dL, a Hb (9 h) of 13.5 g/dL and a Ht (9 h) of 40.9%. The Lym (9 h) was 78%, the MCH (9 h) was 20.4 pg and the MCHC (9 h) was 33%. It also gave an MCV (9 h) of 61.6 fL, a Mono (9 h) of 2.4% and a Neu (9 h) of 18%. The PT (9 h) was 15.6 s, the Plat (9 h) was 121.1 x10_4/uL and the RBC (9 h) was 666.6 x10_4/ul. It also gave a Ret (9 h) of 6.9%, a WBC (9 h) of 89.6 x10_2/uL and a KIDNEY_L (9 h) of 0.9 g. For the same compound, the KIDNEY_R (9 h) was 1 g, the KIDNEY_TOTAL (9 h) was 1.9 g and the LIVER (9 h) was 8.8 g. The A/G (9 h) was 1.3, the ALP (9 h) was 1401 IU/L and the ALT (9 h) was 43.4 IU/L. It also gave an AST (9 h) of 73.8 IU/L, a BUN (9 h) of 11.6 mg/dL and a CRE (9 h) of 0.2 mg/dL. The Ca (9 h) was 10.9 mg/dL, the Cl (9 h) was 106 meq/L and the DBIL (9 h) was 0 mg/dL. For the same compound, the GLC (9 h) was 170.4 mg/dL, the IP (9 h) was 8.8 mg/dL and the K (9 h) was 4.3 meq/L. The LDH (9 h) was 168 IU/L, the Na (9 h) was 140.8 meq/L and the PL (9 h) was 120.8 mg/dL. For the same compound, the RALB (9 h) was 3.1 g/dL, the TBIL (9 h) was 0.014 mg/dL and the TC (9 h) was 66.8 mg/dL. For the same compound, the TG (9 h) was 51.4 mg/dL, the TP (9 h) was 5.6 g/dL and the gamma-GTP (9 h) was 1.2 IU/L. It also gave a TERMINAL_BW (24 h) of 224.5 g, an APTT (24 h) of 22.3 s and a Bas (24 h) of 0%. It also gave an Eos (24 h) of 1%, a Fbg (24 h) of 316.8 mg/dL and a Hb (24 h) of 13.7 g/dL. It also gave a Ht (24 h) of 40.8%, a Lym (24 h) of 80% and an MCH (24 h) of 20.6 pg. The MCHC (24 h) was 33.5%, the MCV (24 h) was 61.5 fL and the Mono (24 h) was 2.6%. It also gave a Neu (24 h) of 15.2%, a PT (24 h) of 15.9 s and a Plat (24 h) of 146.8 x10_4/uL. The RBC (24 h) was 664.2 x10_4/ul, the Ret (24 h) was 7.2% and the WBC (24 h) was 79.6 x10_2/uL. For the same compound, the KIDNEY_L (24 h) was 0.9 g, the KIDNEY_R (24 h) was 1 g and the KIDNEY_TOTAL (24 h) was 1.9 g. The LIVER (24 h) was 10.2 g, the A/G (24 h) was 1.2 and the ALP (24 h) was 1615.2 IU/L. The ALT (24 h) was 38.6 IU/L, the AST (24 h) was 67.6 IU/L and the BUN (24 h) was 16.4 mg/dL. It also gave a CRE (24 h) of 0.2 mg/dL, a Ca (24 h) of 11.1 mg/dL and a Cl (24 h) of 106.2 meq/L. It also gave a DBIL (24 h) of 0 mg/dL, a GLC (24 h) of 186 mg/dL and an IP (24 h) of 7.8 mg/dL. For the same compound, the K (24 h) was 4.3 meq/L, the LDH (24 h) was 175.8 IU/L and the Na (24 h) was 142.6 meq/L. It also gave a PL (24 h) of 145.8 mg/dL, an RALB (24 h) of 3.1 g/dL and a TBIL (24 h) of 0.006 mg/dL. The TC (24 h) was 79.2 mg/dL, the TG (24 h) was 94.4 mg/dL and the TP (24 h) was 5.6 g/dL. For the same compound, the gamma-GTP (24 h) was 1.8 IU/L.
